What is called melting point is the temperature of the solid-liquid transition. In turn, `COc1ccc(S(=O)(=O)Nc2nc(-c3cccc([N+](=O)[O-])c3)c(CN(C)C)s2)cc1OC` had a melting point of 203 °C.

Turning to `Cc1cc(C#N)cc(C)c1OCCCc1cncs1`, the melting point was 71 to 73 °C.

Consider `Cc1ccc(-c2nccc3c(CC(=O)O)cccc23)cc1`, for which the melting point is 223 to 224 °C. The same measure for `O=C1OC(CCCCN2CCN(c3ccccn3)CC2)CN1c1ccccc1` (configuration not stated): 78 to 81 °C; for `CC(C)c1ccc(-c2ccc(/C=C/C(=O)O)s2)cc1`: 216 to 219 °C.

Consider `Cc1ccc2cc(CCCc3ccncc3)c(=O)n(-c3cccc([N+](=O)[O-])c3)c2n1`, for which the melting point was 165 to 166 °C. The same measure for `CN(C)c1cccc(-n2c(=O)c(CCCc3ccncc3)cc3cccnc32)c1`: 124 to 127 °C; for `CC(=O)N1c2ccccc2Sc2cc(O)c3ccccc3c21`: 230 °C. The same measure for `O=c1oc2ccccc2c(OCCCN2CCOCC2)c1-c1ccccc1`: 82 °C; for `COCc1c2c(n(Cc3ccccc3)c1-c1ccccc1)C(C)CN(Cc1ccccc1)C2` (configuration not stated): 140 to 141 °C; for `Cc1c(C(F)(F)F)nc(C(F)(F)F)c(C(=O)O)c1O`: 155 to 159 °C. On to `O=C(O)CCc1oc(-n2ncc3ccccc32)nc1-c1ccc(Cl)cc1`, for which the melting point was 204 to 205 °C. In the case of `c1ccc(OCCSCc2nnc(-c3ccc(OCCN4CCCCC4)cc3)o2)cc1` it was 70 °C; in that of `N#Cc1ccc(-c2ccc(OCCC(=O)NO)cc2)cc1`, 114 to 118 °C; in that of `CN1CCN(c2cccc(-n3cnc4cc(C=O)ccc43)c2)CC1`, 199 to 201 °C.

As for `CCOC(=O)NNc1ccc(-c2ccc(F)cc2)nn1`, the melting point was 173 to 174 °C. The molecule `CC1(C)CCC(=C[C@H]2[C@H](C(=O)O)C2(C)C)CC1` (relative stereo) returned a melting point of 96 °C. In the case of `CCCc1c(OCCCCCCc2ccc(C(=O)CCCC(=O)O)cc2CCC(=O)O)ccc2c1OCCC2=O` it was 136 to 139 °C; in that of `CCCN1CCO[C@@H]2c3cc4c(=O)n(OC)ccc4cc3CC[C@H]21`, 142 to 145 °C; in that of `NCC(O)C1=CC2(CCCC2)c2ccccc21` (configuration not stated), 76 to 78 °C. The same measure for `CN(C)CCCOc1cc(F)c(-c2c(Cl)nc3nccn3c2NCC(F)(F)F)c(F)c1`: 52 to 55 °C; for `O=c1cc(-c2ccncc2)nc2n1CCCN2CCCc1c[nH]c2ccccc12`: 230 to 232 °C. The same measure for `COc1cc(OC)cc(-c2nc[nH]c2-c2ccc(OC(F)F)c(O)c2)c1`: 159 to 161 °C; for `O=C1N=NC(=O)c2c1[nH]c1cccc(Br)c21`: over 260 °C; for `O=c1c(Cl)nc2ccc(C(F)(F)F)cc2n1OCc1ccccc1`: 148 to 150 °C. Consider `CC(=O)Nc1ccc(OC2CCC3C4CCC5N(C)C(=O)CCC5(C)C4CCC23C)cc1` (configuration not stated), for which the melting point is 340 °C. In the case of `CS(=O)(=O)Nc1ccc(CCCOCCCCCCNCC(O)c2ccc(O)c(CO)c2)cc1` (configuration not stated) it was 48 to 50 °C; in that of `CCCCc1ccc2nc(Cl)c(S(N)(=O)=O)n2n1`, 166 °C; in that of `N#Cc1ccc(C=O)c(-c2ccccc2)c1`, 75 °C. As to `CCc1ccc(Oc2cnc(S)[nH]c2=O)cc1`, the melting point was over 220 °C. In the case of `COc1cc(I)c(F)cc1Cl` it was 90 to 94 °C; in that of `CN1C(=O)CC[C@]2(C)c3ccc(-c4ccc(F)cc4)cc3CC[C@@H]12`, 121 to 122 °C. The same measure for `CC(=O)OC1CCC2(C)C(=CCC3C2CCC2(C)C(c4cccnc4)=CCC32)C1` (configuration not stated): 144 to 145 °C. `CN(C)C=C(C#N)C(=O)NCc1ccccc1` registered a melting point of 160 to 161 °C. Molecule `Cc1ccc(S(=O)(=O)NC(=O)OCCc2ccc(-n3c(C(C)(C)C)nc4c(C)nc(C)cc43)cc2)cc1` returned a melting point of 226 °C. The same measure for `Cc1c(NC(=O)C(CSC(=O)N(C)C)Cc2ccccc2)cccc1C(=O)O` (configuration not stated): 84 to 87 °C.

The molecule `COC(=O)C(Oc1cc(OCc2ccnnc2)ccc1C#N)c1ccccc1Cl` (racemic) registered a melting point of 136 to 138 °C. In the case of `C=C(c1c(C)n(CC)c2ccccc12)c1c(C)n(CC)c2ccccc12` it was 179 to 182 °C. In the case of `O=C(c1cnccn1)N1CCN(Cc2ccc3c(c2)Cc2c(-c4ccsc4)n[nH]c2-3)CC1` it was 202 to 204 °C. In the case of `O=C(O)CCCCN1CCN2c3ccccc3Cc3ccccc3C2C1` (configuration not stated) it was 218 to 219 °C. As to `CN(C(=O)NC(=O)c1ccccc1)C(=O)Nc1nc(C(Cl)(Cl)Cl)ns1`, the melting point was 70 °C. The molecule `COc1ccccc1-c1ccc(OCC(=O)Nc2cscc2C(=O)O)nc1` had a melting point of 194 to 197 °C. The same measure for `CCCc1nc2ccccc2n1Cc1ccc(-c2ncccc2C(=O)O)cc1`: 238 to 239 °C. Consider `CC(C)C(c1cncnc1C(F)(F)F)N1CCN(c2ccccc2)C1=O` (configuration not stated), for which the melting point is 126 to 128 °C. The same measure for `CNCc1cc(OC)c(-c2ccc(C[C@H](NC(=O)c3c(Cl)cccc3Cl)C(=O)O)cc2)c(OC)c1`: 274 °C. In the case of `CCOc1cc(C)ccc1C1CCN(CCCCNC(=O)c2ccc(C=Cc3ccc(C(F)(F)F)cc3)cc2)CC1` it was 210 °C. `O=c1c2ccc(O)c(O)c2oc2cccc(O)c12` gave a melting point of 300 to 301 °C. In the case of `CC(C)(C)OC(=O)N1CCN2C(=O)N(c3cc(Cl)cc(Cl)c3)C(=O)C2C1` (configuration not stated) it was 60.2 °C.

`NS(=O)(=O)c1ccc(-c2noc(-c3cnn4c(C(F)F)cc(-c5ccc(C(F)(F)F)cc5)nc34)n2)s1` gave a melting point of 278 °C. The same measure for `COc1cc(C(C)C)c(Oc2cnc(N)nc2N)cc1-c1ncon1`: 135 to 138 °C; for `CCCCn1c(=O)cnn(-c2ccc(N3CCN(c4ccc(O)cc4)CC3)cc2)c1=O`: 202 °C; for `CC1(CO)Cc2c(cc(C(C)(C)C)c(O)c2C(C)(C)C)O1` (configuration not stated): 126 to 128 °C. In the case of `CC(C)c1ccc(C2C(=O)Oc3ccc(Br)cc32)cc1` (configuration not stated) it was 157 to 158 °C. The same measure for `C[C@@H](Nc1ncnc2cc(F)c([N+](=O)[O-])cc12)c1ccccc1`: 203 °C.

`CCCC1=C(C#N)C(c2ccccc2Cl)c2c(n[nH]c2C2CCCC2)N1` (configuration not stated) gave a melting point of over 270 °C.

In the case of `CCN(CC)CC(=O)Nc1ccc(C2=NN=C(C)Cc3cc4c(cc32)OCO4)cc1`, the melting point fell in the range of 157 to 158 °C. In the case of `Cc1cc(C(F)(F)F)cc(N(C(N)=O)c2c(Cl)cccc2Cl)n1` it was 165 °C; in that of `Clc1ccc(C2(Cn3cncn3)OCCO2)s1`, 117 °C; in that of `Oc1ccc2cc(-c3cnc(-c4ccccc4)o3)ccc2c1`, 235 to 238 °C. In the case of `CC(C)(C)OC(=O)NNc1ccc(N2C(=O)C=CC2=O)cn1` it was 182 to 184 °C. In the case of `O=C1C(O)=C(N2CCN(c3cccc(C(F)(F)F)c3)CC2)C(=O)c2ccccc21` it was 167 to 169 °C; in that of `CC(NC(=O)Nc1ccc(CN2C(=O)C3CCCC3N(C(=O)CN3C(=O)c4ccccc4C3=O)c3ccccc32)cc1)c1ccccc1` (configuration not stated), 156 to 160 °C; in that of `O=C(O)CN(CC(=O)O)C(=O)C(=O)c1ccc(OCCCCCCCCCCCCOc2ccccc2)cc1`, 130 to 132 °C. As for `CC(C)Oc1nn(CCO)cc1C(=O)NCc1ccc(C(F)(F)F)cc1`, the melting point lay within 107 to 108 °C. For `CCCCCNC(=O)N1CCC(c2nc(C3=NOC(c4ccccc4)C3)cs2)CC1` (configuration not stated), the melting point was 132 to 134 °C. The same measure for `COc1cc2ncc(C#N)c(Nc3cccc(C(C)=O)c3)c2cc1OC`: 204 to 206 °C. The same measure for `CCOC(=O)c1ccc(OCCCCCCCCCCCOc2ccc(Cl)cc2)cc1`: 94 to 95 °C. The same measure for `O=C(O)C=C(c1cccc(Cl)c1)c1cccc(Cl)c1`: 114 to 115 °C; for `O=C1N=NC(=O)c2c1[nH]c1cc(Cl)ccc21`: over 250 °C; for `CC(=O)Nc1cc(F)c([N+](=O)[O-])cc1F`: 188 to 189 °C. Take `CC1Cc2c(Cl)ccc3c(=O)c(C(=O)O)cn1c23` (configuration not stated): the melting point was 288 to 290 °C. In the case of `COc1ccc(-c2nc(C(=O)N3CCOCC3)sc2-c2ccc(OC)cc2)cc1` it was 118 to 122 °C; in that of `CCOC(=O)c1csc(-c2ccccc2[N+](=O)[O-])n1`, 82 to 84 °C. The same measure for `CCCCOCC(CO)OCn1cnc2c(O)nc(N)nc21` (configuration not stated): 208 to 211 °C; for `O=C1Cc2cccc(CNC(=O)C3Cc4ccccc4N3S(=O)(=O)c3ccc(-c4cccc(C(F)(F)F)c4)cc3)c2N1` (configuration not stated): 50 °C.

With `CCN1CCC(N(C)S(=O)(=O)c2ccc(Nc3nccc(Nc4ccc(F)cc4)n3)cc2)CC1`, the melting point is 162 to 163 °C. `c1ccc2c(c1)Cc1cc(C3(Cn4cncn4)OCCO3)ccc1-2` yielded a melting point of 187 °C. In the case of `COc1c(C)cc(C)cc1C(N)=O` it was 109 to 113 °C. The same measure for `CC12CCC3c4c(O)cc(O)cc4CCC3C1CCC2=O` (configuration not stated): 245 to 247 °C; for `CCOC(=O)/C=C/c1cn(C)nc1OCc1ccc(OCc2nc(-c3ccco3)oc2C)c(OC)c1`: 135 to 136 °C; for `OC(CNC1CC1)COc1ccc(-c2nccs2)cc1` (configuration not stated): 100 to 102 °C.

The molecule `Cc1cc(N(C)CCO)cc(C)n1` yielded a melting point of 139 to 144 °C. In the case of `COC(=O)c1nc2nc(C)c(C)c(S)n2n1` it was 206 to 207 °C.

As to `CCOC(=O)C(Cl)N=Nc1ccccc1C(=O)c1ccccn1` (configuration not stated), the melting point fell in the range of 123 to 125 °C. In the case of `CCCCCCCCCCCCCCCCCCOc1ccc(C(=O)OC)c(OCCCOc2ccc(OCc3ccccc3)cc2)c1` it was 68 to 70 °C. The same measure for `Cc1ncc2c(n1)-c1ccc(Cl)cc1C(c1ccccc1Cl)=[N+]([O-])C2`: 215 to 216 °C; for `O=C(Nc1ccc2ccc(-c3cccc(Br)c3)nc2n1)c1cccc(Br)c1`: 144 to 146 °C.

The values above are taken from a melting point compilation (Tetko et al.; mined from patent text by program, amines drawn as free bases though some values may be those of a salt).
